Earlier results in patent US20210268046A1, “CANNABINOID & PROBIOTIC SUPPOSITORIES & METHODS OF USE” (HoneyHills TX, LLC, priority 2020, published 2021).

Conditions: for psychotic symptoms: acute paranoid schizophrenia

Structure (SMILES) | psychotic symptoms | side effects (compared with Amisuipride)
C=C(C)[C@@H]1CCC(C)=C[C@H]1c1c(O)cc(CCCCC)cc1O [cannabidiol, Cannabidiol] | significant decrease | fewer side effects
CCN1CCCC1CNC(=O)c1cc(S(=O)(=O)CC)c(N)cc1OC (stereo not drawn) [Amisuipride] | significant decrease | 
